Source: patent publication US12637413B2, “Fatty acid amide hydrolase (FAAH) cleavable prodrugs of thyromimetics and combination with peripherally restricted FAAH inhibitors” (Autobahn Therapeutics, Inc., priority 2021, dated 2026)

Legend:
recombinant human FAAH = target: T1, recombinant human FAAH (Homo sapiens, UniProt O00519); test: FAAH inhibition, 30 min preincubation, AMC substrate; assay type: biochemical; settings: 30 min preincubation with recombinant human FAAH and AMC; read-out: Apparent IC50s
T1 sequence (O00519 1-579): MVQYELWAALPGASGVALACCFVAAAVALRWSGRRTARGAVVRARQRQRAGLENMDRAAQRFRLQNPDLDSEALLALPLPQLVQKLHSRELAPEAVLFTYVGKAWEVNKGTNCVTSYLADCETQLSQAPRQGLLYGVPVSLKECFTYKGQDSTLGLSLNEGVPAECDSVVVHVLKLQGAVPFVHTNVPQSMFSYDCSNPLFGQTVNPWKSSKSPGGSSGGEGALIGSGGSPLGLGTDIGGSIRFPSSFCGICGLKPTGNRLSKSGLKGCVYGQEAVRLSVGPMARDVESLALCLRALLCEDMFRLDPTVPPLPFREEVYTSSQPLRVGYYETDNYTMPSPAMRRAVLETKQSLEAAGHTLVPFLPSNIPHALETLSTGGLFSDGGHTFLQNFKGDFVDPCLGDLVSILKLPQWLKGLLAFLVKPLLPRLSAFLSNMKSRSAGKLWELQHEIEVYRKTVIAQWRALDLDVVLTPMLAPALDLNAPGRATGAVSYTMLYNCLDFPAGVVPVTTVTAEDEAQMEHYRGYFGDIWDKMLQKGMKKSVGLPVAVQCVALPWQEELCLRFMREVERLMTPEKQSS

FAAH = target: T2, FAAH (Mus musculus, UniProt O08914); test: tissue distribution after co-dosing prodrug ABX-002 with or without PFI or GFI; assay type: in vivo, mice; settings: for Distribution: peripheral or global FAAH inhibitor
T2 construct: from tissue; host or cells: living mice; plasma, liver and brain sampled
T2 sequence (O08914 1-579): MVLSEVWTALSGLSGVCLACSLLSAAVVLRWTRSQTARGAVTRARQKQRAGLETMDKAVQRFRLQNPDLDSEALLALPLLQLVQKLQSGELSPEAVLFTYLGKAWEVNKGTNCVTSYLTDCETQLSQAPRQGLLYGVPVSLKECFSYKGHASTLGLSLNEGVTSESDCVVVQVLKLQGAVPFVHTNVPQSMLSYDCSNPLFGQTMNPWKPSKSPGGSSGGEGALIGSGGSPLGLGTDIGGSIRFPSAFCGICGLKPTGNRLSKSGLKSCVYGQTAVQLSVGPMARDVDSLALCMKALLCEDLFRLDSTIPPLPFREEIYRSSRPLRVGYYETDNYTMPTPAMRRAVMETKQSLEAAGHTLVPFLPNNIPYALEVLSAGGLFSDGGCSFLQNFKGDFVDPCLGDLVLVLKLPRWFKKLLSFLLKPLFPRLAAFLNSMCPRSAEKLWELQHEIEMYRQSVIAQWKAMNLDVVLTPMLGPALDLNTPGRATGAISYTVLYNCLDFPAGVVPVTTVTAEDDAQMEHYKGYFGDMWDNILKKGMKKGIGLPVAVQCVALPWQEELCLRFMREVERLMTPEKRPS
Experimental: The ability of globally-penetrant and peripherally-restricted FAAH inhibitors (GFI & PFI, respectively) to alter distribution of ABX-002 and ABX-002A was assessed.
Table 5 depicts the inhibition of active metabolite (LL-650177 or PF-044578454) in AUC in the plasma, liver, and brain after prodrug (ABX-002) co-dosing. Tissue distribution studies in mice confirm global & peripheral inhibition of FAAH.

[1] = target: T3, recombinant human FAAH (rhFAAH) (Homo sapiens, UniProt O00519); test: FAAH substrate evaluation (acid metabolite formation); assay type: biochemical; settings: observed rate constant for acid metabolite formation; 0.5 ng/μL rhFAAH, 1 μM test compound, room temperature, 0-60 minutes
T3 construct: purchased Cayman Chemical (Ann Arbor, MI, USA)
T3 sequence (O00519 1-579): T1 sequence (O00519 1-579)
Experimental: Purified recombinant human FAAH (rhFAAH) was purchased from Cayman Chemical (Ann Arbor, MI, USA). The total volume for each incubation was 400 μL containing a final 0.5 ng/μL rhFAAH, 1 μM test compound, 1.25% ethanol or 1 μM PF-3845 (FAAH inhibitor), and 0.1% bovine serum albumin in Tris-EDTA buffer at pH 8.0). The positive control was LL-341001. The incubation was conducted at the room temperature. At 0, 5, 15, 30 and 60 minutes, an aliquot of 30 μL reaction mixtures was removed and mixed with 300 μL acetonitrile containing 5 ng/mL terfenadine and 10 ng/mL tolbutamide as internal standards to quench the reaction. The resulting mixture was centrifuged at 4000 rpm, 4° C. for 15 minutes, and 100 μL supernatant was ready for LC-MS/MS analysis to measure the formation of acid metabolite.
Acquity Ultra Performance LC system from Waters was used for sample analysis. The chromatography was performed on a reverse phase Kinetex 2.6 μm C18 column, 2.1×30 mm, 100 Å. The mobile phase A comprised of 0.1% formic acid in water and mobile phase B comprised of 0.1% formic acid in acetonitrile with a 2-min run time at the flow rate of 0.8 mL/min for the acid metabolite from positive control or a 1.5 min run time at the flow rate of 0.9 mL/min for the acid metabolite of test compounds. The mass spectrometer (API-5500 and API Q Trap 4000 Applied Biosystems/MDS SCIEX Instruments, Framingham, MA, USA) was operated under ESI positive or negative ion MRM mode.
The formation of acid metabolite was monitored and quantified using one calibration point of 1 μM. The observed rate constant (ke) for the acid metabolite formation was calculated by plotting the metabolite concentration versus time of incubation with the slope being ke and is shown in Table 1.

Which results are given for `NC(=O)c1cccc(-c2cc(OC(=O)NC3CCCCC3)ccc2O)c1` [URB937]?
IC50 (recombinant human FAAH): 69 nM; Distribution (FAAH): Peripheral

What does the source list for `O=C(Nc1cccnn1)N1CCC(=Cc2cccc(Oc3ccc(C(F)(F)F)cn3)c2)CC1` [PF-04457845]?
IC50 (recombinant human FAAH): 3 nM; inhibition of active metabolite AUC, Brain (FAAH; ABX-002A AUC after ABX-002 co-dosing, mice, brain): 83%; inhibition of active metabolite AUC, Liver (FAAH; ABX-002A AUC after ABX-002 co-dosing, mice, liver): 94%; inhibition of active metabolite AUC, Plasma (FAAH; ABX-002A AUC after ABX-002 co-dosing, mice, plasma): 94%; Distribution (FAAH): Global

For `CC(C)c1cc(Cc2c(Cl)cc(OCC(=O)NC3CCCCC3)cc2Cl)ccc1O` [Compound 105, N-cyclohexyl-2-(3,5-dichloro-4-(4-hydroxy-3-isopropylbenzyl)phenoxy)acetamide], which ke [1] is on record?
The ke was “C (ke is 0)”.

`C#CCNC(=O)COc1cc(Cl)c(Cc2ccc(O)c(C(C)C)c2)c(Cl)c1` [Compound 5] was tested. Which ke [1] did it give?
Its ke is “A (ke is more than or equal to 0.1)”.

How did the ke [1] turn out when `CC(C)c1cc(Cc2c(Cl)cc(OCC(=O)NC[C@@H](C)O)cc2Cl)ccc1O` [Compound 7] was run?
The ke was “B (ke is less than 0.1 and more than 0)”.

For `CC(C)c1cc(Cc2c(Cl)cc(OCC(=O)NC(C)(C)C)cc2Cl)ccc1O` [Compound 119, N-(tert-butyl)-2-(3,5-dichloro-4-(4-hydroxy-3-isopropylbenzyl)phenoxy)acetamide], which ke [1] is on record?
Its ke is “C (ke is 0)”.

How did the ke [1] turn out when `CC(C)c1cc(Cc2c(Cl)cc(OCC(=O)NCCS(C)(=O)=O)cc2Cl)ccc1O` [Compound 30] was run?
Its ke is “A (ke is more than or equal to 0.1)”.

For `CONC(=O)COc1cc(Cl)c(Cc2ccc(O)c(C(C)C)c2)c(Cl)c1` [Compound 28], which ke [1] is on record?
Its ke is “A (ke is more than or equal to 0.1)”.

`CC(C)c1cc(Cc2c(Cl)cc(OCC(=O)NCCc3ccc(O)c(O)c3)cc2Cl)ccc1O` [Compound 24] was tested. Which ke [1] did it give?
The ke was “B (ke is less than 0.1 and more than 0)”.

With `CC(C)c1cc(Cc2c(Cl)cc(OCC(=O)NCCc3ccccc3)cc2Cl)ccc1O` [Compound 23] as the molecule, how does the ke [1] read?
The ke was “B (ke is less than 0.1 and more than 0)”.

How did the ke [1] turn out when `CC(C)c1cc(Cc2c(Cl)cc(OCC(=O)NCCS(=O)O)cc2Cl)ccc1O` [Compound 13] was run?
The ke was “B (ke is less than 0.1 and more than 0)”.

Which ke [1] does the source give for `CC(C)c1cc(Cc2c(Cl)cc(OCC(=O)N[C@H](C)CO)cc2Cl)ccc1O` [Compound 9] here?
The ke was “A (ke is more than or equal to 0.1)”.

With `CCNC(=O)COc1cc(Cl)c(Cc2ccc(O)c(C(C)C)c2F)c(Cl)c1` [Compound 33] as the molecule, how does the ke [1] read?
The ke was “A (ke is more than or equal to 0.1)”.

How did the ke [1] turn out when `CC(C)CN(C)C(=O)COc1cc(Cl)c(Cc2ccc(O)c(C(C)C)c2)c(Cl)c1` [Compound 120, 2-(3,5-dichloro-4-(4-hydroxy-3-isopropylbenzyl)phenoxy)-N-isobutyl-N-methylacetamide] was run?
The ke was “C (ke is 0)”.

`CC(C)c1cc(Cc2c(Cl)cc(OCC(=O)NC3CC3)cc2Cl)ccc1O` [Compound 17] was tested. Which ke [1] did it give?
The ke was “A (ke is more than or equal to 0.1)”.

Which ke [1] does the source give for `CC(C)c1cc(Cc2c(Cl)cc(OCC(=O)Nc3cccc(O)c3)cc2Cl)ccc1O` [Compound 21] here?
The ke was “A (ke is more than or equal to 0.1)”.
